Earlier results in US7495029B2, “Prodrugs of (2R)-2-propyloctanoic acid for the treatment of stroke” (Merck & Co., Inc, priority 2004, dated 2009).

How the values were obtained:
[1] = tested on: rat stroke models; settings: Kogure et al, Life Sciences 2002
[2] = tested on: lipid peroxidation; settings: in vitro; Kogure et al, Life Sciences 2002
[3] = tested on: vascular endothelial cell; settings: in vitro; Kogure et al, Life Sciences 2002
[4] = tested on: mice; settings: Tunctan et al, Pharmacological Res 2003
[5] = tested on: gerbils subjected to a transient global ischemia event; settings: Jalil et al, Brain Research 2002

Edaravone
development of cerebral edema, cerebral infarction, neurological symptoms and delayed neuronal death [1]: inhibit the development of cerebral edema, cerebral infarction, neurological symptoms and delayed neuronal death | lipid peroxidation [2]: inhibit lipid peroxidation | vascular endothelial cell damage [3]: inhibit

CC1(C)OC(=O)C(c2cccc(F)c2)=C1c1ccc(S(C)(=O)=O)cc1 [DFU]
endotoxin-induced mortality [4]: dose dependently reduce endotoxin-induced mortality | neuroprotection against hippocampal damage [5]: neuroprotective against hippocampal damage
